Patent publication US20200089110A1, “SULFONIC ACID DERIVATIVE COMPOUNDS AS PHOTOACID GENERATORS IN RESIST APPLICATIONS” (Heraeus Precious Metals North America Daychem LLC, priority 2015, published 2020)

Legend:
Solubility in PGMEA = assay type: physicochemical; conditions: in propylene glycol monomethyl ether acetate (PGMEA)
[1] = Photolysis of PAGs in acetonitrile under 365 nm irradiation (photoreactivity); assay type: physicochemical; conditions: for Solubility × Photoreactivity: product of solubility in PGMEA and relative photoreactivity at 365 nm
Description: A photoresist composition typically comprises PAG, polymers, additives and solvents. The performance of a photoresist composition is mainly dependent on the properties of the PAG and polymer components. To formulate a high-performance photoresist composition, more photosensitive PAGs are typically selected. The photosensitivity of a PAG is typically directly related to the strength of the generated acid and the photoreactivity of the PAG. For a series of PAGs producing the same latent acid, their photosensitivity is related only to their photoreactivity. Thus evaluating the photosensitivity of a PAG can be achieved by studying its photoreactivity. The higher photoreactivity, the higher photosensitivity. The photoreactivity can be investigated by photolysis of a PAG in its dilute solution under low exposure intensity (to avoid side reactions which don't generate the desired acid). The change in the concentration of a PAG upon irradiation can be determined by measuring the absorbance of the PAG at the maximum absorption wavelength.
(§1) Photolysis of PAGs was carried out in acetonitrile in air at room temperature. The sodium salt of tetrabromophenol blue (TBPBNa), an acid indicator dye, which has a maximum absorption at 618 nm, was purchased from Aldrich (indicator grade) and used as received. Irradiation of the solution of the PAGs (3×10^−5 M) was performed using a Cole-Parmer UV 15 W bench lamp (EW-97605-50) at 365 nm. Light intensity was measured using an UV Power Puck II radiometer from EIT Inc. UV-Vis spectra were run on a Thermo Scientific Evolution 201 UV-visible spectrophotometer.
Photolysis of NIT, comparative compound A, D-1, and D-2 was examined in acetonitrile. The absorption band at 397 nm gradually decreases upon irradiation, indicating the progress of photoreaction with the increase of exposure dose of energy. Assuming the photoreaction is first-order, plot of natural log of changes in absorbance with exposure dose of energy gives the photoreaction constant of D-2 (i.e. the slope of the linear trendline) (FIG. 2). The photoreaction constants of other compounds were similarly determined under the same irradiation condition.
Comparing the constants of A, D-1, and D-2 with that of NIT normalized to one gives the relative photoreactivity (Table 7). The photoreactivity for PAG (e.g. D-2) according to the present disclosure is ˜8 times greater than that of NIT and ˜3 times greater than that of Comparative Compound A. The formation of acid upon irradiation was confirmed by observing the spectral changes of the acid indicator, TBPBNa at 618 nm.

[2] = UV-Vis spectra of PAG compounds; assay type: physicochemical; conditions: for absorbance at i-line of a mercury lamp: compared with NIT (FIG. 4); for strong absorption band: 0.001% w/v (FIG. 4)
Method: FIG. 4 is a UV-Vis spectra of compounds NIT, D-1, and D-2 in PGMEA and D-4 in acetonitrile (0.001% w/v).
as §1

Solubility (w/w %) in PGMEA (Solubility in PGMEA) [% w/w %] | Solubility × Photoreactivity [1] [%] | absorbance at i-line of a mercury lamp [2] | strong absorption band ([2]; in PGMEA) [nm] | melting point [°C] | absorption band ([1]; in acetonitrile, band decreases upon irradiation (FIG. 1)) [nm] | g-line absorbance ([2]; FIG. 4) | strong absorption band ([2]; in acetonitrile) [nm] | SMILES
4.3 | 37.4 |  |  |  |  |  |  | CCC(C)Oc1ccc(/C=C/c2ccc3c4c(cccc24)C(=O)N(OS(=O)(=O)C(F)(F)F)C3=O)cc1 (stereo not drawn)
1.0 | 2.5 |  |  |  |  |  |  | O=C1c2cccc3c(C#Cc4ccccc4)ccc(c23)C(=O)N1OS(=O)(=O)C(F)(F)F [Comparative Compound A, reference compound]
6.9 | 12.4 | much larger than that of NIT | 363 | 151 to 152 |  |  |  | CCCCOC(=O)/C=C/c1ccc2c3c(cccc13)C(=O)N(OS(=O)(=O)C(F)(F)F)C2=O [Compound D-1]
1.6 | 13.1 | much larger than that of NIT | 397 | 182 to 184 | 397 |  |  | O=C1c2cccc3c(/C=C/c4ccccc4)ccc(c23)C(=O)N1OS(=O)(=O)C(F)(F)F [Compound D-2]
 |  |  |  | 227 to 229 |  |  |  | CC(C)(C)c1ccc(/C=C/c2ccc3c4c(cccc24)C(=O)N(OS(=O)(=O)C(F)(F)F)C3=O)cc1 [Compound D-3]
 |  | much larger than that of NIT |  |  |  | large | 415 | CC(C)(C)Oc1ccc(/C=C/c2ccc3c4c(cccc24)C(=O)N(OS(=O)(=O)C(F)(F)F)C3=O)cc1 [Compound D-4]
1.7 | 1.7 |  |  |  |  |  |  | O=C1c2cccc3cccc(c23)C(=O)N1OS(=O)(=O)C(F)(F)F [NIT, N-Hydroxynaphthalimide triflate, reference compound]
